Molecular target: T1, pyruvate formate-lyase activating enzyme (PFL-AE) (Escherichia coli, UniProt P0A9N4)
T1 sequence (P0A9N4 2-246): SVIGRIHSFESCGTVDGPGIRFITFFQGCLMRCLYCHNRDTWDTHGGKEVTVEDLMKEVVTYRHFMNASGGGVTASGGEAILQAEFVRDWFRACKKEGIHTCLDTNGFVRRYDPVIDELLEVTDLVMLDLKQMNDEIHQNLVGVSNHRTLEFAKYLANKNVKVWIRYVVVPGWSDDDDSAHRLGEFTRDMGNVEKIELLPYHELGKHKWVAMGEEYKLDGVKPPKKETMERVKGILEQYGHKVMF
Assay: […] Mössbauer spectroscopy
Format: binding
Conditions: 0.64 mM enzyme, [4Fe-4S]2+ state; 4.2 K, 50 mT; unique Fe site of cluster

Row | SMILES | fraction of LOC cluster at 6.4 mM
1 | Nc1ncnc2c1ncn2[C@@H]1O[C@H](COP(=O)(O)O)[C@@H](O)[C@H]1O [AMP] | 69 % of total Fe
2 | Nc1ncnc2c1ncn2[C@@H]1O[C@H](COP(=O)(O)OP(=O)(O)O)[C@@H](O)[C@H]1O [ADP] | 50 % of total Fe

From paper PMC4230446 (Biochemistry, 2009)
